The record followed here is patent US20230073777A1, “CYCLIC-AMP RESPONSE ELEMENT BINDING PROTEIN (CBP) AND/OR ADENOVIRAL E1A BINDING PROTEIN OF 300 KDA (P300) DEGRADATION COMPOUNDS AND METHODS OF USE” (CULLGEN (SHANGHAI), INC., priority 2019, published 2023).

Read-outs that look alike come from different tables or passages of the source.

One assay deals with LNCaP cells. Briefly: LNCaP cell viability assay (CellTiter-Glo). It is filed as cell-based. The settings on record: Homo sapiens, 72 h, LNCaP prostate cancer cell viability inhibition, 3 days. An outline of the steps:
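LNCaP cells, 5000/well, exposed to compounds in 12-point 3-fold serial dilution (top 10 μM) for 3 days. Viability by CellTiter-Glo luminescence, normalized to untreated cells; IC50 by least-squares nonlinear regression.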
For orientation: In ATP-based viability assays light output follows the ATP content of the culture.

In a further assay the target is P300 (Homo sapiens, UniProt Q09472). Kind of assay: Immunoblotting of P300 protein levels in LNCaP or 22RV1 cells. Format: cell-based. On the set-up: LNCaP or 22RV1 cells that express CBP/P300 proteins were treated with GNE-781 or the bivalent compounds; endogenous in cells; host or cells: LNCaP (clone FGC) or 22RV1 cells. The settings on record: read-out: Degradation (10 nM). As for the experimental part:
Specific exemplary bivalent compounds were characterized in LNCaP or 22RV1 cells. LNCaP or 22RV1 cells that express CBP/P300 proteins were treated with GNE-781 or the bivalent compounds disclosed herein (P-001 to P-174) for indicated hours. Cells were collected, lysed and subject to immunoblotting using an antibody specific to P300 or CBP proteins. Tubulin or vinculin was included as the loading control. DMSO was used as the negative control.
Cultured cells or tissue chunks were washed with cold PBS once and lysed in cold RIPA buffer supplemented with protease inhibitors and phosphatase inhibitors (Beyotime Biotechnology). The solutions were then incubated at 4° C. for 30 minutes with gentle agitation to fully lyse cells. Cell lysates were centrifuged at 13,000 rpm for 10 minutes at 4° C. and pellets were discarded. Total protein concentrations in the lysates were determined by BCA assays (Beyotime Biotechnology). Cell lysates were mixed with Laemmli loading buffer to 1× and heated at 99° C. for 5 min. Proteins were resolved on SDS-PAGE and visualized by chemiluminescence. Images were taken by a ChemiDoc MP Imaging system (Bio-Rad). Protein bands were quantitated using the accompanied software provided by Bio-Rad.
For orientation: In western blotting, separated proteins are transferred to a membrane and probed.

Where [1] appears, read: percentage of inhibition of p300 at 10 nM (Table 3).
[2] abbreviates: percentage of inhibition of p300 at 10 nM (Table 2).

As a reminder, the IC50 is the concentration that gives 50% inhibition. Read a low IC50 as greater potency in that assay.

P300, sequence (Q09472 whole entry): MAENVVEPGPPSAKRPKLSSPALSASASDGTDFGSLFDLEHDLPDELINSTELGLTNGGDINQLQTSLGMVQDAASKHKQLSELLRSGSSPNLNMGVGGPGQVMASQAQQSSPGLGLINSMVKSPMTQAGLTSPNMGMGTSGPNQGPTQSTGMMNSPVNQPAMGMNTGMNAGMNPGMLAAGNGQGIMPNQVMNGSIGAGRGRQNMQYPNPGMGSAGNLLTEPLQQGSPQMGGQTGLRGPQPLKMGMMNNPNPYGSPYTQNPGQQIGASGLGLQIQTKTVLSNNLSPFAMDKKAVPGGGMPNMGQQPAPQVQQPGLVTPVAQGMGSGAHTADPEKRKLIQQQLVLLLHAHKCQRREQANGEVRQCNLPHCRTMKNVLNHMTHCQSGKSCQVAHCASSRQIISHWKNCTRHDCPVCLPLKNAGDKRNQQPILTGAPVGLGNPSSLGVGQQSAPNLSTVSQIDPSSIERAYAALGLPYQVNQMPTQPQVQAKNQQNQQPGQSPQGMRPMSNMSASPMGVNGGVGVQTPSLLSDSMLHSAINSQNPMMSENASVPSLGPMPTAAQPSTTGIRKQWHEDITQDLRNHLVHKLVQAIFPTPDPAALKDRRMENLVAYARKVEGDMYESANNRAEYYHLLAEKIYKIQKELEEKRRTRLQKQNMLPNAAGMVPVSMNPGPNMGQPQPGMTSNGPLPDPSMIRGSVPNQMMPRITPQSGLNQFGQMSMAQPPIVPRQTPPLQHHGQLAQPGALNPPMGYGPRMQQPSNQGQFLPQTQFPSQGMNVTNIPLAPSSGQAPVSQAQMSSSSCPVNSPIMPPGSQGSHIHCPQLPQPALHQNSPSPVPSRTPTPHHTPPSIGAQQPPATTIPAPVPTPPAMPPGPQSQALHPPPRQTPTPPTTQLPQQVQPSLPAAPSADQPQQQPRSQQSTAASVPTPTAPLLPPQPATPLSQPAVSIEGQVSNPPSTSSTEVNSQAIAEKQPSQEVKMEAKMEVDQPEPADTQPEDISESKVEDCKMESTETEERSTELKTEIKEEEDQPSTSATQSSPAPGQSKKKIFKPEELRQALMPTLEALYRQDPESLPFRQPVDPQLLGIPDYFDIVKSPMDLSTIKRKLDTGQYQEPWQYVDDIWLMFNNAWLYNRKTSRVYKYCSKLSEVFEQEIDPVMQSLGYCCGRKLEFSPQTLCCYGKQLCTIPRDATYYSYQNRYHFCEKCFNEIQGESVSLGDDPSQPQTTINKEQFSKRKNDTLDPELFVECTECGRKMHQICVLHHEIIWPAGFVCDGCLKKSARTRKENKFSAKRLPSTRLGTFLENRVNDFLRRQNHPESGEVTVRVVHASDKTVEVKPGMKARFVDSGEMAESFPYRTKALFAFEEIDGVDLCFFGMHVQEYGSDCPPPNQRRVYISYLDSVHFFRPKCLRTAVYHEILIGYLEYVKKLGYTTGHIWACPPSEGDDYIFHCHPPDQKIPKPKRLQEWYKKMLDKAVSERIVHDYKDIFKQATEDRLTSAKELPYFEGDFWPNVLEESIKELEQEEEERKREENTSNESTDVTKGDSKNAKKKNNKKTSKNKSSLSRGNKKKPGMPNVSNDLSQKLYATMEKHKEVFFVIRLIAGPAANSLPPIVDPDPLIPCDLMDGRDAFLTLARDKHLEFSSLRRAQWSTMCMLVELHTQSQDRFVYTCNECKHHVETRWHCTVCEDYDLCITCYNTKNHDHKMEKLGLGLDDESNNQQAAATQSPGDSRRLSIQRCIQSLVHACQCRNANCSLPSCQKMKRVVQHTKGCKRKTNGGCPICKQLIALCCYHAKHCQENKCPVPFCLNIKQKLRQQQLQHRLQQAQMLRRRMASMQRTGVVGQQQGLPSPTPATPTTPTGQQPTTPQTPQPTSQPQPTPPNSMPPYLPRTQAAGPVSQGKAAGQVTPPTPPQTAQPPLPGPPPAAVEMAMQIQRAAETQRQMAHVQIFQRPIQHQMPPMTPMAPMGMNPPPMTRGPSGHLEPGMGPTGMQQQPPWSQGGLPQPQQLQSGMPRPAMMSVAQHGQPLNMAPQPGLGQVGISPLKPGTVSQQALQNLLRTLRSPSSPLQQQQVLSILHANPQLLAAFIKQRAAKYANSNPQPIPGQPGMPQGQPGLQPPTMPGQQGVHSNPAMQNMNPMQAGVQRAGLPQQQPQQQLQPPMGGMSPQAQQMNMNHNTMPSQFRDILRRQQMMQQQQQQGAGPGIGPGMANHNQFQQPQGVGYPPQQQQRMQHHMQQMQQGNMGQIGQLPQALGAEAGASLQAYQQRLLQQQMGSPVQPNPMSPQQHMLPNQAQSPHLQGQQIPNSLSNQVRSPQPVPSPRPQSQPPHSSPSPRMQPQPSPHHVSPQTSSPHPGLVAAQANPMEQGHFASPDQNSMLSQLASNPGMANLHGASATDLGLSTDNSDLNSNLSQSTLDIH

Take `CC(=O)N1CCc2c(c(N3CCCc4cc(-c5cnn(C)c5)c(C(F)F)cc43)nn2C2CCN(C(=O)CCCCCCCCCn3c(=O)n(C4CCC(=O)NC4=O)c4ccccc43)CC2)C1` (stereo not shown) [P-164, 3-(3-(10-(4-(5-acetyl-3-(7-(difluoromethyl)-6-(1-methyl-1H-pyrazol-4-yl)-3,4-dihydroquinolin-1(2H)-yl)-4,5,6,7-tetrahydro-1H-pyrazolo[4,3-c]pyridin-1-yl)piperidin-1-yl)-10-oxodecyl)-2-oxo-2,3-dihydro-1H-benzo[d]imidazol-1-yl)piperidine-2,6-dione]: in the assay on LNCaP cells (CellTiter-Glo (Table 3)), the IC50 worked out at 1 nM. For the same molecule, the inhibition at 0.01 µM at P300 (setting [1]) was more than 80%.
`CNC(=O)N1CCc2c(c(N3CCCc4cc(-c5cnn(C)c5)c(C(F)F)cc43)nn2C2CCN(C(=O)CCOCCOCCNc3cccc4c3C(=O)N(C3CCC(=O)NC3=O)C4=O)CC2)C1` (stereo not shown) [P-052, 3-(7-(Difluoromethyl)-6-(1-methyl-1H-pyrazol-4-yl)-3,4-dihydroquinolin-1(2H)-yl)-1-(1-(3-(2-(2-((2-(2,6-dioxopiperidin-3-yl)-1,3-dioxoisoindolin-4-yl)amino)ethoxy)ethoxy)propanoyl)piperidin-4-yl)-N-methyl-1,4,6,7-tetrahydro-5H-pyrazolo[4,3-c]pyridine-5-carboxamide]: in the assay on LNCaP cells (CellTiter-Glo (Table 3)), half-maximal inhibition (IC50) required 105 nM. Besides, on P300 (setting [1]), the inhibition at 0.01 µM was less than 20%.
For `CC(=O)N1CCc2c(c(N3CCCc4cc(-c5cnn(C)c5)c(C(F)F)cc43)nn2C2CCN(CCCCCCCc3cccc4c3C(=O)N(C3CCC(=O)NC3=O)C4=O)CC2)C1` (stereo not shown) [P-132, 4-(7-(4-(5-Acetyl-3-(7-(difluoromethyl)-6-(1-methyl-1H-pyrazol-4-yl)-3,4-dihydroquinolin-1(2H)-yl)-4,5,6,7-tetrahydro-1H-pyrazolo[4,3-c]pyridin-1-yl)piperidin-1-yl)heptyl)-2-(2,6-dioxopiperidin-3-yl)isoindoline-1,3-dione] the same measures were 16.8 nM and 20 to 50%.
In the assay with LNCaP cells (CellTiter-Glo (Table 2)), `CNC(=O)N1CCc2c(c(N3CCCc4cc(-c5cnn(CC(=O)NCCCCCNc6cccc7c6C(=O)N(C6CCC(=O)NC6=O)C7=O)c5)c(C(F)F)cc43)nn2C2CCOCC2)C1` (stereo not shown) [P-040, 3-(7-(Difluoromethyl)-6-(1-(2-((5-((2-(2,6-dioxopiperidin-3-yl)-1,3-dioxoisoindolin-4-yl)amino)pentyl)amino)-2-oxoethyl)-1H-pyrazol-4-yl)-3,4-dihydroquinolin-1(2H)-yl)-N-methyl-1-(tetrahydro-2H-pyran-4-yl)-1,4,6,7-tetrahydro-5H-pyrazolo[4,3-c]pyridine-5-carboxamide] displayed an IC50 of 96.4 nM. For the same molecule, on P300 (setting [2]), the inhibition at 0.01 µM is less than 20%.
For the molecule `CC(=O)N1CCc2c(c(N3CCCc4cc(-c5cnn(C)c5)c(C(F)F)cc43)nn2C2CCN(C(=O)CCCCCOc3cccc4c3CN(C3CCC(=O)NC3=O)C4=O)CC2)C1` (stereo not shown) [P-121, 3-(4-((6-(4-(5-Acetyl-3-(7-(difluoromethyl)-6-(1-methyl-1H-pyrazol-4-yl)-3,4-dihydroquinolin-1(2H)-yl)-4,5,6,7-tetrahydro-1H-pyrazolo[4,3-c]pyridin-1-yl)piperidin-1-yl)-6-oxohexyl)oxy)-1-oxoisoindolin-2-yl)piperidine-2,6-dione], inhibition with LNCaP cells (CellTiter-Glo (Table 3)) was half-maximal at 28.8 nM (IC50). In addition, the inhibition at 0.01 µM on P300 (setting [1]) is more than 80%.
`CNC(=O)N1CCc2c(c(N3CCCc4cc(-c5cnn(C)c5)c(C(F)F)cc43)nn2C2CCN(C(=O)CCCCCOc3cccc4c3CN(C3CCC(=O)NC3=O)C4=O)CC2)C1` (stereo not shown) [P-088, 3-(7-(difluoromethyl)-6-(1-methyl-1H-pyrazol-4-yl)-3,4-dihydroquinolin-1(2H)-yl)-1-(1-(6-((2-(2,6-dioxopiperidin-3-yl)-1-oxoisoindolin-4-yl)oxy)hexanoyl)piperidin-4-yl)-N-methyl-1,4,6,7-tetrahydro-5H-pyrazolo[4,3-c]pyridine-5-carboxamide] came in with an IC50 with LNCaP cells (CellTiter-Glo (Table 3)) of 5.5 nM. Moreover, the inhibition at 0.01 µM on P300 (setting [1]) is more than 80%.
The molecule `CNC(=O)N1CCc2c(c(N3CCCc4cc(-c5cnn(C)c5)c(C(F)F)cc43)nn2C2CCN(C(=O)CCCCC#Cc3cccc4c3C(=O)N(C3CCC(=O)NC3=O)C4=O)CC2)C1` (stereo not shown) [P-092, 3-(7-(Difluoromethyl)-6-(1-methyl-1H-pyrazol-4-yl)-3,4-dihydroquinolin-1(2H)-yl)-1-(1-(7-(2-(2,6-dioxopiperidin-3-yl)-1,3-dioxoisoindolin-4-yl)hept-6-ynoyl)piperidin-4-yl)-N-methyl-1,4,6,7-tetrahydro-5H-pyrazolo[4,3-c]pyridine-5-carboxamide] returned an IC50 with LNCaP cells (CellTiter-Glo (Table 3)) of 56.5 nM. Moreover, the inhibition at 0.01 µM at P300 (setting [1]) is 20 to 50%.
Regarding `CNC(=O)N1CCc2c(c(N3CCCc4cc(-c5cnn(CC(=O)NCCOCCOCCC(=O)N[C@H](C(=O)N6C[C@H](O)C[C@H]6C(=O)NCc6ccc(-c7scnc7C)cc6)C(C)(C)C)c5)c(C(F)F)cc43)nn2C2CCOCC2)C1` [P-075, 3-(7-(Difluoromethyl)-6-(1-((S)-14-((2S,4R)-4-hydroxy-2-((4-(4-methylthiazol-5-yl)benzyl)carbamoyl)pyrrolidine-1-carbonyl)-15,15-dimethyl-2,12-dioxo-6,9-dioxa-3,13-diazahexadecyl)-1H-pyrazol-4-yl)-3,4-dihydroquinolin-1(2H)-yl)-N-methyl-1-(tetrahydro-2H-pyran-4-yl)-1,4,6,7-tetrahydro-5H-pyrazolo[4,3-c]pyridine-5-carboxamide], in the assay on LNCaP cells (CellTiter-Glo (Table 3)), the IC50 was more than 10000 nM. Further, the inhibition at 0.01 µM on P300 (setting [1]) is less than 20%.
For `CC(=O)N1CCc2c(c(N3CCCc4cc(-c5cnn(C)c5)c(C(F)F)cc43)nn2C2CCN(CCN3CCOC(CNc4cccc5c4C(=O)N(C4CCC(=O)NC4=O)C5=O)C3)CC2)C1` (stereo not shown) [P-142] the same measures were 0.3 nM and more than 80%.
As to `CC(=O)N1CCc2c(c(N3CCCc4cc(-c5cnn(C)c5)c(C(F)F)cc43)nn2C2CCN(C(=O)CCCCCCCCNc3cccc4c3n(C)c(=O)n4C3CCC(=O)NC3=O)CC2)C1` (stereo not shown) [P-160, 3-(4-((9-(4-(5-acetyl-3-(7-(difluoromethyl)-6-(1-methyl-1H-pyrazol-4-yl)-3,4-dihydroquinolin-1(2H)-yl)-4,5,6,7-tetrahydro-1H-pyrazolo[4,3-c]pyridin-1-yl)piperidin-1-yl)-9-oxononyl)amino)-3-methyl-2-oxo-2,3-dihydro-1H-benzo[d]imidazol-1-yl)piperidine-2,6-dione], the IC50 in the assay with LNCaP cells (CellTiter-Glo (Table 3)) turned out to be 0.2 nM. Moreover, at P300 (setting [1]), the inhibition at 0.01 µM was more than 80%.
`CNC(=O)N1CCc2c(c(N3CCCc4cc(-c5cnn(C)c5)c(C(F)F)cc43)nn2C2CCN(C(=O)CCCCCCCNc3cccc4c3C(=O)N(C3CCC(=O)NC3=O)C4=O)CC2)C1` (stereo not shown) [P-036, 3-(7-(difluoromethyl)-6-(1-methyl-1H-pyrazol-4-yl)-3,4-dihydroquinolin-1(2H)-yl)-1-(1-(8-((2-(2,6-dioxopiperidin-3-yl)-1,3-dioxoisoindolin-4-yl)amino)octanoyl)piperidin-4-yl)-N-methyl-1,4,6,7-tetrahydro-5H-pyrazolo[4,3-c]pyridine-5-carboxamide] displayed an IC50 with LNCaP cells (CellTiter-Glo (Table 2)) of 0.8 nM. Besides, the inhibition at 0.01 µM at P300 (setting [2]) was more than 80%.
In the assay with LNCaP cells (CellTiter-Glo (Table 2)), `CNC(=O)N1CCc2c(c(N3CCCc4cc(-c5cnn(CC(=O)NCCCCCCNc6ccc7c(c6)C(=O)N(C6CCC(=O)NC6=O)C7=O)c5)c(C(F)F)cc43)nn2C2CCOCC2)C1` (stereo not shown) [P-020] displayed an IC50 of 3.3 nM. Further, the inhibition at 0.01 µM on P300 (setting [2]) was more than 80%.
With `CC(=O)N1CCc2c(c(N3CCCc4cc(-c5cnn(C)c5)c(C(F)F)cc43)nn2C2CCN(C(=O)CCCCNc3cccc4c3n(C)c(=O)n4C3CCC(=O)NC3=O)CC2)C1` (stereo not shown) [P-128, 3-(4-((5-(4-(5-Acetyl-3-(7-(difluoromethyl)-6-(1-methyl-1H-pyrazol-4-yl)-3,4-dihydroquinolin-1(2H)-yl)-4,5,6,7-tetrahydro-1H-pyrazolo[4,3-c]pyridin-1-yl)piperidin-1-yl)-5-oxopentyl)amino)-3-methyl-2-oxo-2,3-dihydro-1H-benzo[d]imidazol-1-yl)piperidine-2,6-dione], in the assay with LNCaP cells (CellTiter-Glo (Table 3)), the IC50 worked out at 244 nM. In addition, the inhibition at 0.01 µM at P300 (setting [1]) lay in the range of 20 to 50%.
On to `CC(=O)N1CCc2c(c(N3CCCc4cc(-c5cnn(C)c5)c(C(F)F)cc43)nn2C2CCN(C(=O)CCCCCCCCNc3ccc4c(c3)n(C)c(=O)n4C3CCC(=O)NC3=O)CC2)C1` (stereo not shown) [P-162, 3-(5-((9-(4-(5-acetyl-3-(7-(difluoromethyl)-6-(1-methyl-1H-pyrazol-4-yl)-3,4-dihydroquinolin-1(2H)-yl)-4,5,6,7-tetrahydro-1H-pyrazolo[4,3-c]pyridin-1-yl)piperidin-1-yl)-9-oxononyl)amino)-3-methyl-2-oxo-2,3-dihydro-1H-benzo[d]imidazol-1-yl)piperidine-2,6-dione], for which the IC50 in the assay on LNCaP cells (CellTiter-Glo (Table 3)) was found to be 0.3 nM. For the same molecule, the inhibition at 0.01 µM on P300 (setting [1]) was more than 80%.
